Assay results taken from patent publication US20040152733A1, “Duloxetine for treatment of hot flashes” (priority 2004, published 2004).

How the values were obtained:
[1] = test system: hot flashes; details: menopausal women (survivors of breast cancer) suffering from hot flashes; versus only 20% with placebo; cited from earlier work
[2] = test system: hot flashes; assay: Randomized double-blind placebo controlled clinical trial of duloxetine for hot flashes (Example 1); details: Group 1: Duloxetine 60 mg QD + Placebo; eight to twelve weeks
Experimental: Patients eligible for a clinical trial include women who are either 1) naturally menopausal; or 2) pre-menopausal but had undergone bilateral oophorectomy surgery within four weeks prior to the commencement of the study. All the women in the study experience a minimum of thirty five hot flashes per week. […] The women or men are divided into two groups for a randomized double-blind placebo controlled study.
The groups receive drug or placebo as illustrated below:
Group 1: Duloxetine (60 mg QD)+Placebo
For three weeks both groups are administered placebo only. For eight to twelve weeks thereafter, each group is administered drug or placebo. Data is collected (numbers/severity of hot flashes experienced) from each participant during and at the end of the test period.

COc1ccc(C(CN(C)C)C2(O)CCCCC2)cc1 (centres unmarked) [venlafaxine]
treated menopausal women reporting a greater than 50% decrease in hot flash frequency [1]: 45%

CNCCC(Oc1cccc2ccccc12)c1cccs1 (centres unmarked) [duloxetine, N-methyl-3-(1-naphthalenyloxy)-3-(2-thienyl)propanamine]
incidence of hot flashes relative to the placebo groups (Groups 2 and 3) [2]: decrease
